Assay results published in patent US20210069157A1, “AGENT FOR TREATMENT OF PBC” (Kowa Company, Ltd, priority 2016, published 2021).

Columns and labels:
[1] = tested on: patients with dyslipidemia showing a high level of triglyceride (TG); assay: Pooled clinical trial data (8 tests, 12 weeks or more): effects on ALP and total bilirubin; format: in vivo, human; design: ALP level, Rate of change (LSmean) / total bilirubin level, Rate of change (LSmean): unit not given here; conditions: for ALP level, Rate of change (LSmean) / total bilirubin level, Rate of change (LSmean): 12 weeks vs baseline; for ALP level, Rate of change (LSmean): placebo 0.5; for total bilirubin level, Rate of change (LSmean): placebo 6.1
Experimental: Compound. A was administered at a dose of 0.05 to 0.4 mg per day to Compound A group. […] Note that comparisons between the groups were investigated by using covariance analysis with baseline levels used as covariates.

[2] = tested on: patients with dyslipidemia showing a high level of TG being treated with ursodeoxycholic acid; assay: Pooled clinical trial data, subset being treated with ursodeoxycholic acid: effects on ALP and total bilirubin; format: in vivo, human
Experimental: Data of patients being treated with ursodeoxycholic acid (15 cases in total) were extracted from the data obtained in a clinical trial (8 tests with an administration period of 12 weeks or more) of Compound A, which had been performed for patients with dyslipidemia showing a high level of TG, the effects of Compound A for the ALP and the total bilirubin were investigated. Compound A was administered at a dose of 0.05 to 0.4 mg per day to Compound A group. Further, placebo was administered to a control group. Each compound was administered to Compound A group and a control group for 12 weeks, and changes in the levels of ALP before and after the administration are shown in Table 3 and FIG. 3, and changes in the levels of total bilirubin before and after the administration are shown in Table 4 and FIG. 4. Note that comparisons between the groups were investigated by using covariance analysis with baseline levels used as covariates.

[3] = 0.05 to 0.4 mg per day, 12 weeks
[4] = patients being treated with ursodeoxycholic acid, 12 weeks

With `CC[C@@H](Oc1cccc(CN(CCCOc2ccc(OC)cc2)c2nc3ccccc3o2)c1)C(=O)O` [Compound A, (R)-2-[3-[[N-(benzoxazol-2-yl)-N-3-(4-methoxyphenoxy)propyl]aminomethyl]phenoxy] butyric acid] as the molecule, how does the “effect on level of ALP as compared with placebo” value [1, 3] read?
Its value is “decreases dose-dependently”.

And the “effect on level of total bilirubin as compared with placebo” value [1, 3]?
The value was “decreases dose-dependently”.

What about the “ALP level, Rate of change (LSmean)” value ([1]; Compound A 0.05 mg/day) of the same molecule?
Its value is −13.4.

What about the “total bilirubin level, Rate of change (LSmean)” value ([1]; Compound A 0.05 mg/day) of the same molecule?
Its value is −16.4.

What about the “total bilirubin level, 12 Weeks” value ([1]; Compound A 0.05 mg/day, 12 weeks, n 37, baseline 0.8) of the same molecule?
Its value is 0.6 mg/dL.

And the “ALP level, 12 Weeks” value ([1]; Compound A 0.05 mg/day, 12 weeks, n 37, baseline 234.4)?
Its value is 201.5 IU/L.

And the “ALP level, Rate of change (LSmean)” value ([1]; Compound A 0.1 mg/day)?
Its value is −22.1.

And the “total bilirubin level, Rate of change (LSmean)” value ([1]; Compound A 0.1 mg/day)?
Its value is −7.7.

What about the “total bilirubin level, 12 Weeks” value ([1]; Compound A 0.1 mg/day, 12 weeks, n 127, baseline 0.8) of the same molecule?
Its value is 0.7 mg/dL.

What about the “ALP level, 12 Weeks” value ([1]; Compound A 0.1 mg/day, 12 weeks, n 127, baseline 228.4) of the same molecule?
The value was 177.4 IU/L.

And the “ALP level, Rate of change (LSmean)” value ([1]; Compound A 0.2 mg/day)?
Its value is −29.4.

And the “total bilirubin level, Rate of change (LSmean)” value ([1]; Compound A 0.2 mg/day)?
Its value is −11.9.

What about the “total bilirubin level, 12 Weeks” value ([1]; Compound A 0.2 mg/day, 12 weeks, n 846, baseline 0.8) of the same molecule?
The value was 0.7 mg/dL.

And the “ALP level, 12 Weeks” value ([1]; Compound A 0.2 mg/day, 12 weeks, n 846, baseline 235.6)?
The value was 164.7 IU/L.

And the “ALP level, Rate of change (LSmean)” value ([1]; Compound A 0.4 mg/day)?
The value was −35.3.

And the “total bilirubin level, Rate of change (LSmean)” value ([1]; Compound A 0.4 mg/day)?
The value was −10.4.

What about the “total bilirubin level, 12 Weeks” value ([1]; Compound A 0.4 mg/day, 12 weeks, n 319, baseline 0.8) of the same molecule?
Its value is 0.6 mg/dL.

What about the “ALP level, 12 Weeks” value ([1]; Compound A 0.4 mg/day, 12 weeks, n 319, baseline 225.1) of the same molecule?
The value was 145.0 IU/L.

And the “effect on level of ALP compared with fenofibrate 200 mg per day” value ([1]; Compound A at a dose of 0.1 mg or more, 12 weeks)?
The value was “decreases the level of ALP more strongly than the fenofibrate at the maximum clinical dose”.

What about the “total bilirubin level, Rate of change (LSmean)” value ([2]; Compound A 0.05 to 0.4 mg per day, 12 weeks vs baseline, patients on UDCA, placebo 41.2) of the same molecule?
Its value is −18.5.

What about the “ALP level, Rate of change (LSmean)” value ([2]; Compound A 0.05 to 0.4 mg per day, 12 weeks vs baseline, patients on UDCA, placebo −1.1) of the same molecule?
Its value is −22.6.

What about the “total bilirubin level, 12 Weeks” value ([2]; Compound A 0.05 to 0.4 mg per day, 12 weeks, patients on UDCA, n 13, baseline 0.7) of the same molecule?
The value was 0.6 mg/dL.

What about the “ALP level, 12 Weeks” value ([2]; Compound A 0.05 to 0.4 mg per day, 12 weeks, patients on UDCA, n 13, baseline 295.5) of the same molecule?
Its value is 229.5 IU/L.

What about the “effect on level of ALP” value [2, 4] of the same molecule?
The value was “decreases”.

And the “effect on level of total bilirubin” value [2, 4]?
The value was “decreases”.
